Where a name gives a salt, the structure may show the parent alone.

The record followed here is patent US9884821B2, “N1-cyclic amine-N5-substituted biguanide derivatives, methods of preparing the same and pharmaceutical composition comprising the same” (IMMUNOMET THERAPEUTICS INC., priority 2013, dated 2018).

In one test the test system is HCT116 cells. The experiment in a line: Effect of inhibiting cancer cell proliferation (MTT) in HCT116 cells. The format is cell-based, human. Conditions: for inhibition at 25 µM: read-out: Cell growth inhibition (%) at 25 μM; for inhibition at 100 µM: read-out: Cell growth inhibition (%) at 100 μM. From the text: HCT116 cells derived from human colorectal cancer were used, and an effect of inhibiting cancer cell proliferation of the biguanide derivative was confirmed by measuring a concentration value (cell growth inhibition concentration, GIC50) at which cell growth was inhibited by 50% using a 3-(4,5-dimethylthiazol-2-yl)-2,5-diphenyltetrazolium bromide (MTT) reagent.
First, HCT116 cells (purchased from the KCLB) were put on a 96-well plate and cultured in a DMEM medium supplemented with 10% fatal bovine serum (commercially available from Gibco Life Technologies (US)) for 16 hours so that approximately 5,000 cells were counted in each well. Subsequently, to obtain the GIC50 value of each compound, the culture media were treated with 100 μM, 25 μM, 6.25 μM, 1.56 μM or 0.39 μM of the compound, and then cultured for 48 hours. In order to determine whether the cells survived after treatment with the compounds, MTT (commercially available from AMRESCO (US)) was added to the culture media which were then cultured for another 3 hours. Formed formazane crystals were dissolved using dimethyl sulfoxide (DMSO) and the absorbance of the resulting solution was measured at 560 nm. After the 48-hour culture, a ratio of a living cell count on a well plate treated with the compounds synthesized in the Examples to a cell count cultured on a well plate not treated with the compound was indicated as cell viability (%) according to the concentration of each treated compound. The cell viability (%) was used to plot a cell viability curve graph and calculate a concentration (GIC50) value of the compound at which the growth was inhibited by 50%, thereby confirming the inhibition effect of cancer cell proliferation.

A further test deals with AMPK. As to the kind of experiment: AMPK activation effect (AMPK [pT172] ELISA) in MCF7 cells. The format is cell-based, human. The settings on record: 24 hours; for AMPK activation effect (%) 5 μM / AMPK activation effect (%) 10 μM / AMPK activation effect (%) 50 μM: AMPKα Thr172 phosphorylation relative to untreated cells; for AC150: concentration at which AMPK activation reached 150%. The method, then: ELISA kit (Invitrogen, Catalog No. KH00651).
MCF7 cells were cultured in a DMEM medium supplemented with 10% fatal bovine serum (commercially available from Gibco Life Technologies (US)). Thereafter, the cultured MCF7 cells were put into a 6-well plate with approximately 5×10^5 cells per well, and cultured in an incubator supplied with 5% CO2. Culture media were treated with the derivatives synthesized in the Examples at concentrations of 5, 10 and 50 uM, and then cultured for 24 hours. […] Subsequently, the cells were lysed according to a method presented in the operation manual of the AMPK [pT172] ELISA kit, and 20 μg of a cell lysate was then yielded through protein assay. Thereafter, the AMPK activation effect was obtained by determining a degree of phosphorylation of a 172nd threonine residue (Thr172) of the AMPKα from the cell lysate according to the method presented in the operation manual of the AMPK [pT172] ELISA kit.

Setting [1] is: Homo sapiens, HCT-116, 48 h, 25 μM.

Broadly, the GI50 is the concentration at which growth is held to half of that of the control. As usually defined, the inhibition is the share of the control response that was lost under treatment. In the test on HCT116 cells (Homo sapiens, HCT-116, 48 h), `CC1CCCN(C(=N)NC(=N)NCc2cccc(C(F)(F)F)c2)C1.Cl` (stereo not drawn) [Example 65, N1-(3-methyl)piperidine-N5-(3-trifluoromethyl)benzyl biguanide hydrochloride] showed a GI50 of 18.3 µM. For the same compound, the inhibition at 25 µM with HCT116 cells (setting [1]) is 66.7%. In the test on AMPK, the “AMPK activation effect (%) 5 μM” value came out at 147%, the “AMPK activation effect (%) 10 μM” value is 274% and the AC150 stood at 2.8 µM.
In the case of `Cl.N=C(NC(=N)N1CC=CCC1)Nc1ccc(F)cc1` [Example 37, N1-1,2,3,6-tetrahydropyridine-N5-(4-fluoro)phenyl biguanide hydrochloride], in the test with HCT116 cells (Homo sapiens, HCT-116, 48 h), it took 135 µM to inhibit growth by half (GI50) and the inhibition at 100 µM was 45.3%. Also, in the test with AMPK, the “AMPK activation effect (%) 10 μM” value is 187%, the “AMPK activation effect (%) 50 μM” value is on record as 522% and the AC150 is 4.2 µM.
For `Cl.N=C(NC(=N)N1CC=CC1)Nc1ccc(F)c(C(F)(F)F)c1` [Example 46, N1-1,2-dihydropyrrole-N5-(4-fluoro, 3-trifluoromethyl)phenyl biguanide hydrochloride], in the test on HCT116 cells (Homo sapiens, HCT-116, 48 h), the GI50 was determined as 12 µM and the inhibition at 100 µM amounted to 100%. In the test on AMPK, the “AMPK activation effect (%) 10 μM” value was found to be 448% and the AC150 stood at 1.6 µM.
Compound `CC1CCCN(C(=N)NC(=N)Nc2ccc(C(F)(F)F)cc2)C1.Cl` (stereo not drawn) [Example 81, N1-(3-methyl)piperidine-N5-(4-trifluoromethyl)phenyl biguanide hydrochloride] registered a GI50 with HCT116 cells (Homo sapiens, HCT-116, 48 h) of 7.7 µM. Besides, the inhibition at 25 µM in the test on HCT116 cells (setting [1]) was 100%. Further, in the test with AMPK, the “AMPK activation effect (%) 5 μM” value stood at 224%, the “AMPK activation effect (%) 10 μM” value is given as 396% and the AC150 is 1.9 µM.
In the case of `Cl.N=C(NC(=N)N1CC=CCC1)Nc1ccc(Cl)c(C(F)(F)F)c1` [Example 33, N1-1,2,3,6-tetrahydropyridine-N5-(4-chloro, 3-trifluoromethyl)phenyl biguanide hydrochloride], in the test on HCT116 cells (Homo sapiens, HCT-116, 48 h), the GI50 was 3.7 µM and the inhibition at 100 µM was 99.4%. In the test with AMPK, the “AMPK activation effect (%) 10 μM” value was 992% and the AC150 was determined as 0.79 µM.
As to `CC1CCCCN1C(=N)NC(=N)Nc1ccc(Cl)cc1.Cl` (stereo not drawn) [Example 77, N1-(2-methyl)piperidine-N5-(4-chloro)phenyl biguanide hydrochloride], the GI50 in the test on HCT116 cells (Homo sapiens, HCT-116, 48 h) was determined as 11.3 µM. Further, the inhibition at 25 µM in the test with HCT116 cells (setting [1]) turned out to be 100%. Further, in the test with AMPK, the “AMPK activation effect (%) 5 μM” value came out at 154%, the “AMPK activation effect (%) 10 μM” value stood at 212% and the AC150 was determined as 4.5 µM.
`Cl.N=C(NCc1cccc(OC(F)(F)F)c1)NC(=N)N1CC=CCC1` [Example 55, N1-1,2,3,6-tetrahydropyridine-N5-(3-trifluoromethoxy)benzyl biguanide hydrochloride]: in the test with HCT116 cells (Homo sapiens, HCT-116, 48 h), the GI50 was 22.8 µM and the inhibition at 100 µM is 97.9%. For the same compound, in the test on AMPK, the “AMPK activation effect (%) 10 μM” value worked out at 389%, the “AMPK activation effect (%) 50 μM” value was 608% and the AC150 stood at 2.1 µM.
On to `CC1=CCN(C(=N)NC(=N)Nc2ccc(F)cc2)C1.Cl` [Example 20, N1-(3-methyl)-1,2-dihydropyrrole-N5-(4-fluoro)phenyl biguanide hydrochloride], for which, in the test with HCT116 cells (Homo sapiens, HCT-116, 48 h), halving of growth (GI50) required 54.8 µM and the inhibition at 100 µM is 93.1%. In the test with AMPK, the “AMPK activation effect (%) 10 μM” value is 83%, the “AMPK activation effect (%) 50 μM” value is reported as 172% and the AC150 stood at 38.3 µM.
For the compound `CC1CCCN(C(=N)NC(=N)Nc2ccc(F)c(C(F)(F)F)c2)C1.Cl` (stereo not drawn) [Example 85, N1-(3-methyl)piperidine-N5-(4-fluoro, 3-trifluoromethyl)phenyl biguanide hydrochloride], the “Cell growth inhibition (%) at 25 μM” value in the test with HCT116 cells (25 μM, 48 hours, hydrochloride) was found to be 100.2%. The compound further yielded a concentration for 50% growth inhibition (GI50) in the test on HCT116 cells (48 hours, hydrochloride) of 7.1 µM. In the test on AMPK (hydrochloride), the “AMPK activation effect (%) 5 μM” value was 345%, the “AMPK activation effect (%) 10 μM” value came to 436% and the AC150 was 0.7 µM.
In the case of `Cc1ccc(NC(=N)NC(=N)N2CC=CCC2)cc1.Cl` [Example 48, N1-1,2,3,6-tetrahydropyridine-N5-(4-methyl)phenyl biguanide hydrochloride], in the test with HCT116 cells (Homo sapiens, HCT-116, 48 h), the GI50 is 42.5 µM and the inhibition at 100 µM was 97.6%. For the same compound, in the test with AMPK, the “AMPK activation effect (%) 10 μM” value is given as 178%, the “AMPK activation effect (%) 50 μM” value is reported as 691% and the AC150 was found to be 4.9 µM.
`Cl.N=C(NC(=N)N1CC=CC1)Nc1cccc(OC(F)(F)F)c1` [Example 52, N1-1,2-dihydropyrrole-N5-(3-trifluoromethoxy)phenyl biguanide hydrochloride]: in the test on HCT116 cells (Homo sapiens, HCT-116, 48 h), it took 15.4 µM to inhibit growth by half (GI50) and the inhibition at 100 µM was 100%. In addition, in the test on AMPK, the “AMPK activation effect (%) 10 μM” value was 352% and the AC150 turned out to be 2.7 µM.
As to `N=C(NC(=N)N1CC=CCC1)Nc1ccc(Br)cc1` [Example 36, N1-1,2,3,6-tetrahydropyridine-N5-(4-bromo)phenyl biguanide hydrochloride], in the test on HCT116 cells (Homo sapiens, HCT-116, 48 h), the 50% growth inhibitory concentration (GI50) is 11.2 µM and the inhibition at 100 µM was 99%. Moreover, in the test with AMPK, the “AMPK activation effect (%) 10 μM” value was determined as 568% and the AC150 turned out to be 0.87 µM.
With `Cl.N=C(NC(=N)N1CC=CC1)Nc1ccc(Br)cc1` [Example 9, N1-1,2-dihydropyrrole-N5-(4-bromo)phenyl biguanide hydrochloride], in the test with HCT116 cells (Homo sapiens, HCT-116, 48 h), the concentration for 50% growth inhibition (GI50) is 28.8 µM and the inhibition at 100 µM stood at 99.5%. Moreover, in the test with AMPK, the “AMPK activation effect (%) 10 μM” value worked out at 169%, the “AMPK activation effect (%) 50 μM” value is on record as 371% and the AC150 is 9.0 µM.
In the test with HCT116 cells (Homo sapiens, HCT-116, 48 h), `CC1CCCCN1C(=N)NC(=N)Nc1cccc(OC(F)(F)F)c1.Cl` (stereo not drawn) [Example 73, N1-(2-methyl)piperidine-N5-(3-trifluoromethoxy)phenyl biguanide hydrochloride] registered a GI50 of 6.7 µM. Besides, the inhibition at 25 µM with HCT116 cells (setting [1]) was found to be 100%. For the same compound, in the test on AMPK, the “AMPK activation effect (%) 5 μM” value turned out to be 215%, the “AMPK activation effect (%) 10 μM” value turned out to be 384% and the AC150 came to 2.0 µM.
For `Cl.N=C(NC(=N)N1CC=CC1)Nc1ccc(Cl)cc1` [Example 8, N1-1,2-dihydropyrrole-N5-(4-chloro)phenyl biguanide hydrochloride], in the test with HCT116 cells (Homo sapiens, HCT-116, 48 h), the GI50 was 42.8 µM and the inhibition at 100 µM amounted to 99.1%. Besides, in the test with AMPK, the “AMPK activation effect (%) 10 μM” value turned out to be 139%, the “AMPK activation effect (%) 50 μM” value was found to be 515% and the AC150 was 8.3 µM.
In the test with HCT116 cells (Homo sapiens, HCT-116, 48 h), `CC1CCCC(C)N1C(=N)NC(=N)Nc1ccc(OC(F)(F)F)cc1.Cl` (stereo not drawn) [Example 89, N1-(2,6-dimethyl)piperidine-N5-(4-trifluoromethoxy)phenyl biguanide hydrochloride] yielded a GI50 of 6.2 µM. In addition, the inhibition at 25 µM in the test with HCT116 cells (setting [1]) was 100%. In the test on AMPK, the “AMPK activation effect (%) 5 μM” value is reported as 153%, the “AMPK activation effect (%) 10 μM” value was 198% and the AC150 was 4.7 µM.
`CC1CCCCN1C(=N)NC(=N)Nc1ccc(OC(F)(F)F)c(F)c1.Cl` (stereo not drawn) [Example 76, N1-(2-methyl)piperidine-N5-(3-fluoro, 4-trifluoromethoxy)phenyl biguanide hydrochloride] displayed a GI50 in the test on HCT116 cells (Homo sapiens, HCT-116, 48 h) of 5.8 µM. Also, in the test on HCT116 cells (setting [1]), the inhibition at 25 µM was found to be 100%. Moreover, in the test with AMPK, the “AMPK activation effect (%) 5 μM” value was found to be 242%, the “AMPK activation effect (%) 10 μM” value is 375% and the AC150 was 1.7 µM.
The compound `CC1CCCC(C)N1C(=N)NC(=N)Nc1ccc(F)cc1.Cl` (stereo not drawn) [Example 98, N1-(2,6-dimethyl)piperidine-N5-(4-fluoro)phenyl biguanide hydrochloride] had a GI50 in the test on HCT116 cells (Homo sapiens, HCT-116, 48 h) of 45.4 µM. For the same compound, the inhibition at 25 µM in the test on HCT116 cells (setting [1]) amounted to 28.2%. Moreover, in the test with AMPK, the “AMPK activation effect (%) 5 μM” value turned out to be 239%, the “AMPK activation effect (%) 10 μM” value turned out to be 244% and the AC150 is 2.8 µM.
Take `CC1=CCN(C(=N)NC(=N)Nc2cccc(OC(F)(F)F)c2)C1.Cl` [Example 25, N1-(3-methyl)-1,2-dihydropyrrole-N5-(3-trifluoromethoxy)phenyl biguanide hydrochloride]: in the test on HCT116 cells (Homo sapiens, HCT-116, 48 h), the GI50 is 4.9 µM and the inhibition at 100 µM came out at 96.6%. In addition, in the test with AMPK, the “AMPK activation effect (%) 10 μM” value was determined as 376% and the AC150 came out at 2.2 µM.
